Results from patent US4886791A, “Soluble derivatives of silybin, a method of preparing them, and pharmaceutical compositions containing them” (priority 1987, dated 1989).
Structures can show the parent of a compound that is named as a salt. Where two headings read alike, the source gives them in different places.

Columns and labels:
[1] = system: mice subjected to hypobaric anoxia; assay: Hypobaric anoxia: protective effect on survival time of mice subjected to hypoxia (i.p.); type: in vivo, mouse; conditions: for ED50: Mus musculus, ip
Source text: Table 5 gives data showing the effect of compound Ia on the survival time of mice subjected to hypobaric anoxia. In this test (M. Nakanishi et al., Life Sciences, 13, 467, 1973), compound Ia was intraperitoneally injected half an hour before the anoxia.

[2] = system: liver poisoning by praseodymium; assay: Antihepatotoxic activity, praseodymium test on the rat (i.v. administration); type: in vivo
Source text: (§1) In order to test its pharmacological activity, compound (Ia) has been administered intravenously and orally in liver poisoning tests, such as the praseodymium poisoning test on the rat and the phalloidine poisoning test on the mouse, both tests being widely described in the literature for use in studying the antihepatotoxic effect of silymarin and silybin (Vogel, in "Studies in Organic Chemistry, Vol. 11, Flavonoids and Bioflavonoids, page 461, Elsevier 1982).
Silybin 11-phosphate was intravenously administered one hour before the praseodymium (10 mg/kg i.v.).

[3] = system: liver poisoning by praseodymium; assay: Antihepatotoxic activity, praseodymium test on the rat (oral administration); type: in vivo
Source text: as §1

[4] = Anti-radical activity in vitro, free radical scavenging (DPPH method); conditions: for IC50: DPPH method
Protocol: The anti-radical activity of compound Ia was measured "in vitro" by testing the disappearance of the free 1,1-diphenyl-2-picrylhydrazyl (DPPH) radical (J. Pincemail et al., Stud. Org. Chem. 23, 423, 1985).

[5] = system: poisoning with phalloidine; assay: Antihepatotoxic activity, mouse poisoned with phalloidine (i.v. administration); type: in vivo; conditions: for Death Rate: 10 animals/group
Source text: as §1
Silybin dihemisuccinate, when tested at a dose equal to 1/13 of the LD50 i.v. in the mouse, protected only 60% of the mice from death by phalloidine (Table 4).

[6] = Acute toxicity, rat; conditions: in vivo, iv
[7] = Acute toxicity, mouse; conditions: in vivo, iv
[8] = system: Rat; conditions: i.v., A. Desplaces et al., 1975; cited from earlier work
[9] = system: Mouse; conditions: i.v., A. Desplaces et al., 1975; cited from earlier work
[10] = corresponds to mg/kg silybin, read-out: Survival Time ED50, corresponding silybin dose
[11] = half an hour before the anoxia, read-out: Survival Time ED50 (confidence limits p = 0.95)
[12] = rat, simultaneously with praseodymium
[13] = corresponds to μM silybin, read-out: IC50, corresponding silybin concentration
[14] = read-out: IC50 (confidence limits p = 0.95)

For `COc1cc(C2Oc3cc(C4Oc5cc(O)cc(O)c5C(=O)C4O)ccc3OC2COP(=O)(O)O)ccc1O` (stereo not drawn) [Silybin 11-phosphate (Ia), Silybin 11-phosphate], the “Activity in prolonging the survival time” value [1] was “active in prolonging the survival time”, the “Activity in prolonging the survival time compared with succinylsilybin” value [1] was “significantly more active than succinylsilybin” and the ED50 [1, 10] was 36.3 mg/kg. For the same compound, the ED50 [1, 11] was 45.7 mg/kg, the “Pharmacological activity compared with silybin dihemisuccinate” value ([2]; intravenous, liver poisoning tests (praseodymium rat, phalloidine mouse)) was “much higher pharmacological activity than silybin dihemisuccinate” and the “ALAT, percentage variation relative to the praseodymium group” value ([2]; rat, i.v., 6.32 mg/kg) was -71%. The “ASAT, percentage variation relative to the praseodymium group” value ([2]; rat, i.v., 6.32 mg/kg) was -54%, the “Liver Wt, m ± s.e.” value ([2]; rat, i.v., 6.32 mg/kg) was 12.6 ± 0.5 g and the “Liver Wt, percentage variation relative to the praseodymium group” value ([2]; rat, i.v., 6.32 mg/kg) was -10%. For the same compound, the “Liver triglycerides, m ± s.e.” value ([2]; rat, i.v., 6.32 mg/kg) was 4792.4 ± 1068.8, the “Liver triglycerides, percentage variation relative to the praseodymium group” value ([2]; rat, i.v., 6.32 mg/kg) was -41% and the “Serum enzymes ALAT, m ± s.e.” value ([2]; rat, i.v., 6.32 mg/kg) was 495.0 ± 244.6 U/L. For the same compound, the “Serum enzymes ASAT, m ± s.e.” value ([2]; rat, i.v., 6.32 mg/kg, 1 h before praseodymium 10 mg/kg i.v.) was 877.0 ± 420.5 U/L, the “ALAT, percentage variation relative to the praseodymium group” value ([2]; rat, i.v., 15.8 mg/kg) was -97% and the “ASAT, percentage variation relative to the praseodymium group” value ([2]; rat, i.v., 15.8 mg/kg) was -95%. The “Liver Wt, m ± s.e.” value ([2]; rat, i.v., 15.8 mg/kg) was 8.7 ± 0.2 g, the “Liver Wt, percentage variation relative to the praseodymium group” value ([2]; rat, i.v., 15.8 mg/kg) was -30% and the “Liver triglycerides, m ± s.e.” value ([2]; rat, i.v., 15.8 mg/kg) was 672.7 ± 100.5. For the same compound, the “Liver triglycerides, percentage variation relative to the praseodymium group” value ([2]; rat, i.v., 15.8 mg/kg) was -92%, the “Serum enzymes ALAT, m ± s.e.” value ([2]; rat, i.v., 15.8 mg/kg) was 31.3 ± 3.2 U/L and the “Serum enzymes ASAT, m ± s.e.” value ([2]; rat, i.v., 15.8 mg/kg) was 90.9 ± 8.9 U/L. For the same compound, the “Effect on praseodymium-induced increases” value ([2]; rat, i.v., dose equal to 1/26 of the LD50) was “inhibited the increase in activity of the two serum transaminases and the increase in the weight of the liver and the hepatic triglycerides”, the “Activity in the praseodymium test” value ([2]; rat, i.v., dose of 1/65 of the LD50) was “Activity was maintained” and the “Antihepatotoxic activity compared with silybin” value [3] was “greater than that of silybin”. For the same compound, the “ALAT, percentage variation relative to the praseodymium group” value ([3]; rat, 315 mg/kg) was -78%, the “ASAT, percentage variation relative to the praseodymium group” value ([3]; rat, 315 mg/kg) was -75% and the “Serum enzymes ALAT, m ± s.e.” value ([3]; rat, 315 mg/kg) was 783.3 ± 304.6 U/L. For the same compound, the “Serum enzymes ASAT, m ± s.e.” value ([3]; rat, 315 mg/kg, simultaneously with praseodymium) was 931.7 ± 299.0 U/L, the “Activity in counteracting the increase in the two serum transaminases compared with silybin” value [3, 12] was “considerably more active than silybin alone” and the “Activity in counteracting the increase in the two serum transaminases compared with silybin dihemisuccinate” value [3, 12] was “as active as silybin dihemisuccinate”. For the same compound, the IC50 [4, 13] was 85 µM, the IC50 [4, 14] was 107 µM and the “Activity in destroying free radicals” value ([4]; in vitro, DPPH) was “significantly active in destroying free radicals”. The “Anti-radical activity relative to silybin or succinylsilybin” value ([4]; more active than either silybin or succinylsilybin) was “about 3.5 times”, the “Activity compared with silybin dihemisuccinate in the phalloidine test” value ([5]; 63 and 126 mg/kg i.v.) was “markedly superior to silybin dihemisuccinate” and the Percentage of deaths ([5]; i.v., 15.8 mg/kg) was 0%. For the same compound, the “Death Rate” value ([5]; i.v., 15.8 mg/kg, 1 h before phalloidine 3 mg/kg i.p.) was 0 and the “Protection from death by phalloidine” value ([5]; i.v., dose equal to 1/15 of the LD50 i.v.) was “protected all the mice from death”.

Compound `COc1cc(C2Oc3cc(C4Oc5cc(O)cc(O)c5C(=O)C4O)ccc3OC2COP(=O)(O)O)ccc1O` (stereo not drawn) [Silybin 11-phosphate (Ia, sodium salt), sodium salt of silybin 11-phosphate] has an LD50 [6] of 415 mg/kg and an LD50 [7] of 235 mg/kg.

In the case of `COc1cc(C2Oc3cc(C4Oc5cc(O)cc(O)c5C(=O)C4OC(=O)CCC(=O)O)ccc3OC2COC(=O)CCC(=O)O)ccc1O` (stereo not drawn) [Silybin dihemisuccinate, silybin dihemisuccinate], the LD50 [8] is listed as 920(1) (906-940) mg/kg, the ED50 [1, 10] is listed as 97.3 mg/kg and the ED50 [1, 11] is listed as 108 mg/kg. For the same compound, the “ALAT, percentage variation relative to the praseodymium group” value ([2]; rat, i.v., 7.5 mg/kg) was -21%, the “ASAT, percentage variation relative to the praseodymium group” value ([2]; rat, i.v., 7.5 mg/kg) was -11% and the “Liver Wt, m ± s.e.” value ([2]; rat, i.v., 7.5 mg/kg) was 12.6 ± 0.5 g. For the same compound, the “Liver Wt, percentage variation relative to the praseodymium group” value ([2]; rat, i.v., 7.5 mg/kg) was -3%, the “Liver triglycerides, m ± s.e.” value ([2]; rat, i.v., 7.5 mg/kg) was 6692.8 ± 738.3 and the “Liver triglycerides, percentage variation relative to the praseodymium group” value ([2]; rat, i.v., 7.5 mg/kg) was -18%. The “Serum enzymes ALAT, m ± s.e.” value ([2]; rat, i.v., 7.5 mg/kg) was 1366. ± 343.1 U/L, the “Serum enzymes ASAT, m ± s.e.” value ([2]; rat, i.v., 7.5 mg/kg) was 1672.0 ± 292.8 U/L and the “ALAT, percentage variation relative to the praseodymium group” value ([2]; rat, i.v., 37.5 mg/kg) was “+64%”. The “ASAT, percentage variation relative to the praseodymium group” value ([2]; rat, i.v., 37.5 mg/kg) was “+38%”, the “Liver Wt, m ± s.e.” value ([2]; rat, i.v., 37.5 mg/kg) was 12.6 ± 0.4 g and the “Liver Wt, percentage variation relative to the praseodymium group” value ([2]; rat, i.v., 37.5 mg/kg) was “+1%”. The “Liver triglycerides, m ± s.e.” value ([2]; rat, i.v., 37.5 mg/kg) was 7083.9 ± 747.5, the “Liver triglycerides, percentage variation relative to the praseodymium group” value ([2]; rat, i.v., 37.5 mg/kg) was -19% and the “Serum enzymes ALAT, m ± s.e.” value ([2]; rat, i.v., 37.5 mg/kg) was 1988.3 ± 465.3 U/L. The “Serum enzymes ASAT, m ± s.e.” value ([2]; rat, i.v., 37.5 mg/kg) was 2600.0 ± 570.9 U/L, the “ALAT, percentage variation relative to the praseodymium group” value ([2]; rat, i.v., 75 mg/kg) was -65% and the “ASAT, percentage variation relative to the praseodymium group” value ([2]; rat, i.v., 75 mg/kg) was -53%. For the same compound, the “Liver Wt, m ± s.e.” value ([2]; rat, i.v., 75 mg/kg) was 12.1 ± 0.5 g, the “Liver Wt, percentage variation relative to the praseodymium group” value ([2]; rat, i.v., 75 mg/kg) was -1% and the “Liver triglycerides, m ± s.e.” value ([2]; rat, i.v., 75 mg/kg) was 9221.0 ± 910.4. For the same compound, the “Liver triglycerides, percentage variation relative to the praseodymium group” value ([2]; rat, i.v., 75 mg/kg) was “+11%”, the “Serum enzymes ALAT, m ± s.e.” value ([2]; rat, i.v., 75 mg/kg) was 422.9 ± 85.6 U/L and the “Serum enzymes ASAT, m ± s.e.” value ([2]; rat, i.v., 75 mg/kg) was 887.0 ± 63.1 U/L. The “Activity in the praseodymium test” value ([2]; rat, i.v., lower doses comparable with those of compound (Ia)) was “no activity”, the “Dose for preventing praseodymium poisoning” value ([2]; rat, i.v., LD50 reported in the literature) was 1/12 and the “ALAT, percentage variation relative to the praseodymium group” value ([3]; rat, 375 mg/kg) was -75%. For the same compound, the “ASAT, percentage variation relative to the praseodymium group” value ([3]; rat, 375 mg/kg) was -70%, the “Serum enzymes ALAT, m ± s.e.” value ([3]; rat, 375 mg/kg) was 886.7 ± 395.1 U/L and the “Serum enzymes ASAT, m ± s.e.” value ([3]; rat, 375 mg/kg) was 1118.3 ± 512.0 U/L. For the same compound, the IC50 [4, 13] was 322 µM, the IC50 [4, 14] was 565 µM and the LD50 [9] was 970(1) (931-1010) mg/kg. The Percentage of deaths ([5]; i.v., 75.0 mg/kg) was 40%, the “Death Rate” value ([5]; i.v., 75.0 mg/kg) was 4 and the “Mice protected from death by phalloidine” value ([5]; i.v., dose equal to 1/13 of the LD50 i.v.) was 60%.

With `COc1cc(C2Oc3cc([C@H]4Oc5cc(O)cc(O)c5C(=O)[C@@H]4O)ccc3OC2CO)ccc1O` (stereo partly drawn) [Silybin, silybin] the “ALAT, percentage variation relative to the praseodymium group” value ([3]; rat, 250 mg/kg) was “+1%”, the “ASAT, percentage variation relative to the praseodymium group” value ([3]; rat, 250 mg/kg) was -2% and the “Serum enzymes ALAT, m ± s.e.” value ([3]; rat, 250 mg/kg) was 3620 ± 795.8 U/L. For the same compound, the “Serum enzymes ASAT, m ± s.e.” value ([3]; rat, 250 mg/kg) was 3680.2 ± 885.6 U/L and the IC50 [4, 14] was 327 µM.
